Results: US11746100B2 (GLOBAL BLOOD THERAPEUTICS, INC., priority 2020, dated 2023)

Target: T1, human ferroportin (Homo sapiens, UniProt Q9NP59)
T1 construct: luciferase reporter (read with the Nano-Glo Luciferase Assay System); expressed in transfected cells; host or cells: CHO cells, stably transfected, expression induced with doxycycline
T1 sequence (Q9NP59 1-571): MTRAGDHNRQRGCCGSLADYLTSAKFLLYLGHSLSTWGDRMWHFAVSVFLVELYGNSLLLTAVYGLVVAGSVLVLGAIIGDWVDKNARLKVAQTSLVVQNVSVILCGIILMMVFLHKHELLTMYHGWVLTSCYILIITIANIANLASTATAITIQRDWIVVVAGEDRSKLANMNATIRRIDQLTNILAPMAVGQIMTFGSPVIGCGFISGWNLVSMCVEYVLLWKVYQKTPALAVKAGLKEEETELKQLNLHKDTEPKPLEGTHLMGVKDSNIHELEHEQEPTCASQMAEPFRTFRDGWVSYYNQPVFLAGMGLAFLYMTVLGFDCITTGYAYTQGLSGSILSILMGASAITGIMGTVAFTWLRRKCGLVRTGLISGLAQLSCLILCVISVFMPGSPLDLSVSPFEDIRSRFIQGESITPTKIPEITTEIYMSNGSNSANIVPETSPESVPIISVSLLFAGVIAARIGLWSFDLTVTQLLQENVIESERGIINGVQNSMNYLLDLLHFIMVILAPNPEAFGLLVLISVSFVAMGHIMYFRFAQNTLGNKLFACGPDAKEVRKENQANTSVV
Experiment: Biological in-vitro ferroportin internalization assay (luciferase reporter)
Assay type: cell-based
Conditions: average pEC50; stably-transfected CHO cell line expressing human ferroportin tagged to a luciferase reporter; 6 h incubation with test compound
How it was run: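 Stably transfected CHO cells expressing luciferase-tagged human ferroportin, plated 24 h with ferric ammonium citrate and induced with doxycycline for 24 h. Compounds incubated 6 h, then luciferase activity measured by Nano-Glo; average pEC50 reported.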

Structure (SMILES) | pEC50
CN(CC(=O)NC(C)(C)C)c1nc(-c2cc(O[C@H]3CCOC3)ccn2)nc2c1CCC2 [Compound 317, N-tert-butyl-2-[methyl(2-{4-[(3S)-oxolan-3-yloxy]pyridin-2-yl}-5H,6H,7H-cyclopenta[d]pyrimidin-4-yl)amino]acetamide] | 7.9
CN(CC(=O)NC(C)(C)C)c1nc(-c2cc(O[C@@H]3CCOC3)ccn2)nc2c1CCC2 [Compound 318, N-tert-butyl-2-[methyl(2-{4-[(3R)-oxolan-3-yloxy]pyridin-2-yl}-5H,6H,7H-cyclopenta[d]pyrimidin-4-yl)amino]acetamide] | 7.9
CN(c1nc(-c2cc(OCCO)ccn2)nc2c1CCC2)[C@H]1CCCN(c2cccc(F)c2)C1=O [Compound 320, (3S)-1-(3-fluorophenyl)-3-({2-[4-(2-hydroxyethoxy)pyridin-2-yl]-5H,6H,7H-cyclopenta[d]pyrimidin-4-yl}(methyl)amino)piperidin-2-one] | 7.1
CN(c1nc(-c2cc(OCCO)ccn2)nc2c1CCC2)[C@@H]1CCCN(c2cccc(F)c2)C1=O [Compound 321, (3R)-1-(3-fluorophenyl)-3-({2-[4-(2-hydroxyethoxy)pyridin-2-yl]-5H,6H,7H-cyclopenta[d]pyrimidin-4-yl}(methyl)amino)piperidin-2-one] | 7.1
CN(CC(=O)N(C)C(C)(C)C)c1nc(-c2cc(OC3COC3)ccn2)nc2c1CCC2 [Compound 322, N-tert-butyl-N-methyl-2-[methyl({2-[4-(oxetan-3-yloxy)pyridin-2-yl]-5H,6H,7H-cyclopenta[d]pyrimidin-4-yl})amino]acetamide] | 7.7
CN(CC(=O)N1CCCCC1)c1nc(-c2cc(OC3COC3)ccn2)nc2c1CCC2 [Compound 323, 2-[methyl({2-[4-(oxetan-3-yloxy)pyridin-2-yl]-5H,6H,7H-cyclopenta[d]pyrimidin-4-yl})amino]-1-(piperidin-1-yl)ethan-1-one] | 7.5
CN(CC(=O)NC(C)(C)C)c1nc(-c2cc3ncsc3cn2)nc2c1CCC2 [Compound 328, N-tert-butyl-2-[methyl(2-{[1,3]thiazolo[5,4-c]pyridin-6-yl}-5H,6H,7H-cyclopenta[d]pyrimidin-4-yl)amino]acetamide] | 6.8
CN(CC(=O)NC(C)(C)C)c1nc(-c2cc3cn(C)nc3cn2)nc2c1CCC2 [Compound 336, N-tert-butyl-2-[methyl(2-{2-methyl-2H-pyrazolo[3,4-c]pyridin-5-yl}-5H,6H,7H-cyclopenta[d]pyrimidin-4-yl)amino]acetamide] | 7.8
CN(CC(=O)NC1(C(F)(F)F)CC1)c1nc(-c2cc(OC3COC3)ccn2)nc2c1CCC2 [Compound 338, 2-[methyl({2-[4-(oxetan-3-yloxy)pyridin-2-yl]-5H,6H,7H-cyclopenta[d]pyrimidin-4-yl})amino]-N-[1-(trifluoromethyl)cyclopropyl]aceta-mide] | 7.1
CN(CC(=O)NC12CC(C1)C2)c1nc(-c2cc(OC3COC3)ccn2)nc2c1CCC2 [Compound 340, N-{bicyclo[1.1.1]pentan-1-yl}-2-[methyl({2-[4-(oxetan-3-yloxy)pyridin-2-yl]-5H,6H,7H-cyclopenta[d]pyrimidin-4-yl})amino]acetamide] | 7.7
CN(CC(=O)NC(C)(C)C)c1nc(-c2cc3occc3cn2)nc2c1CCC2 [Compound 341, N-tert-butyl-2-[(2-{furo[3,2-c]pyridin-6-yl}-5H,6H,7H-cyclopenta[d]pyrimidin-4-yl)(methyl)amino]acetamide] | 7.6
CN(CC(=O)N1CCCCC1)c1nc(-c2cc(O[C@@H]3CCOC3)ccn2)nc2c1CCC2 [Compound 342, 2-[methyl(2-{4-[(3R)-oxolan-3-yoxy]pyridin-2-yl}-5H,6H,7H-cyclopenta[d]pyrimidin-4-yl)amino]-1-(piperidin-1-yl)ethan-1-one] | 7.6
CN(CC(=O)N1CCCCC1)c1nc(-c2cc(O[C@H]3CCOC3)ccn2)nc2c1CCC2 [Compound 343, 2-[methyl(2-{4-[(3S)-oxolan-3-yloxy]pyridin-2-yl}-5H,6H,7H-cyclopenta[d]pyrimidin-4-yl)amino]-1-(piperidin-1-yl)ethan-1-one] | 7.7

The remaining lines, values ahead:

pEC50 | Structure (SMILES)
6.8 | CN(Cc1ncnn1-c1cccc(F)c1)c1nc(-c2cc(OCCO)ccn2)nc2c1CCC2 [Compound 315, 2-({2-[4-({[1-(3-fluorophenyl)-1H-1,2,4-triazol-5-yl]methyl}(methyl)amino)-5H,6H,7H-cyclopenta[d]pyrimidin-2-yl]pyridin-4-yl}oxy)ethan-1-ol]
7.8 | Cc1ccc(NC(=O)[C@@H](C)N(C)c2nc(-c3cc(OCCO)ccn3)nc3c2CCC3)cn1 [Compound 316, (2R)-2-({2-[4-(2-hydroxyethoxy)pyridin-2-yl]-5H,6H,7H-cyclopenta[d]pyrimidin-4-yl}(methyl)amino)-N-(6-methylpyridin-3-yl)propanamide]
6.4 | CN(Cc1nncn1-c1cccc(F)c1)c1nc(-c2cc(OCCO)ccn2)nc2c1CCC2 [Compound 319]
7.4 | Cc1ccc(NC(=O)CN(C)c2nc(-c3cc(OC4COC4)ccn3)nc3c2CCC3)cn1 [Compound 324, 2-[methyl({2-[4-(oxetan-3-yloxy)pyridin-2-yl]-5H,6H,7H-cyclopenta[d]pyrimidin-4-yl})amino]-N-(6-methylpyridin-3-yl)acetamide]
7.9 | CN(CC(=O)Nc1ccc(Cl)cc1)c1nc(-c2cc(OC3COC3)ccn2)nc2c1CCC2 [Compound 325, N-(4-chlorophenyl)-2-[methyl({2-[4-(oxetan-3-yloxy)pyridin-2-yl]-5H,6H,7H-cyclopenta[d]pyrimidin-4-yl})amino]acetamide]
7.9 | Cc1ccc(NC(=O)CN(C)c2nc(-c3cc(OC4COC4)ccn3)nc3c2CCC3)cc1 [Compound 326, 2-[methyl({2-[4-(oxetan-3-yloxy)pyridin-2-yl]-5H,6H,7H-cyclopenta[d]pyrimidin-4-yl})amino]-N-(4-methylphenyl)acetamide]
7.9 | COc1ccc(NC(=O)CN(C)c2nc(-c3cc(OC4COC4)ccn3)nc3c2CCC3)cc1 [Compound 327, N-(4-methoxyphenyl)-2-[methyl({2-[4-(oxetan-3-yloxy)pyridin-2-yl]-5H,6H,7H-cyclopenta[d]pyrimidin-4-yl})amino]acetamide]
6.8 | COc1ccc(NC(=O)CN(C)c2nc(-c3cc4ncsc4cn3)nc3c2CCC3)cn1 [Compound 329, N-(6-methoxypyridin-3-yl)-2-[methyl(2-{[1,3]thiazolo[5,4-c]pyridin-6-yl}-5H,6H,7H-cyclopenta[d]pyrimidin-4-yl)amino]acetamide]
7.8 | Cc1ccc(NC(=O)CN(C)c2nc(-c3cc(OCC4(O)CC4)ccn3)nc3c2CCC3)cn1 [Compound 330, 2-[(2-{4-[(1-hydroxycyclopropyl)methoxy]pyri-din-2-yl}-5H,6H,7H-cyclopenta[d]pyrimidin-4-yl)(methyl)amino]-N-(6-methylpyridin-3-yl)acetamide]
8.3 | Cc1ccc(NC(=O)CN(C)c2nc(-c3cc(OCCO)ccn3)nc3c2C(C)(C)CC3)cn1 [Compound 331, 2-({2-[4-(2-hydroxyethoxy)pyridin-2-yl]-5,5-dimethyl-5H,6H,7H-cyclopenta[d]pyrimidin-4-yl}(methyl)amino)-N-(6-methylpyridin-3-yl)acetamide]
7.2 | COc1ccc(N(C)C(=O)CN(C)c2nc(-c3cc(OCCO)ccn3)nc3c2CCC3)cc1 [Compound 334, 2-({2-[4-(2-hydroxyethoxy)pyridin-2-yl]-5H,6H,7H-cyclopenta[d]pyrimidin-4-yl}(methyl)amino)-N-(4-methoxyphenyl)-N-methylacetamide]
8.4 | COc1ccc2c(c1)CCN2C(=O)CN(C)c1nc(-c2cc(OCCO)ccn2)nc2c1CCC2 [Compound 335, 2-({2-[4-(2-hydroxyethoxy)pyridin-2-yl]-5H,6H,7H-cyclopenta[d]pyrimidin-4-yl}(methyl)amino)-1-(5-methoxy-2,3-dihydro-1H-indol-1-yl)ethan-1-one]
7.4 | CN(CC(=O)NC1(C(F)(F)F)CC1)c1nc(-c2cc(OCC(C)(C)O)ccn2)nc2c1CCC2 [Compound 337, 2-({2-[4-(2-hydroxy-2-methylpropoxy)pyridin-2-yl]-5H,6H,7H-cyclopenta[d]pyrimidin-4-yl}(methyl)amino)-N-[1-(trifluoromethyl)cyclopropyl]aceta-mide]
8.2 | CN(CC(=O)Nc1ccc(Cl)cc1)c1nc(-c2cc(OCCO)ccn2)nc2c1CCC2 [Compound 339, N-(4-chloropehnyl)-2-({2-[4-(2-hydroxyethoxy)pyridin-2-yl]-5H,6H,7H-cyclopenta[d]pyrimidin-4-yl}(methyl)amino)acetamide]
7.6 | COc1ccc(NC(=O)CN(C)c2nc(-c3cc(OCCN(C)C)ccn3)nc3c2CCC3)cn1 [Compound 344, 2-[(2-{4-[2-(dimethylamino)ethoxy]pyridin-2-yl}-5H,6H,7H-cyclopenta[d]pyrimidin-4-yl)(methyl)amino]-N-(6-methoxypyridin-3-yl)acetamide]
